A short description of experiment [1]: Inhibition of the positive chronotropic response (H2-antagonism) of guinea pig right atrium relative to cimetidine. It counts as functional, Cavia porcellus, Cardiac atrium.
The target of experiment [2] is Histamine H2 receptor (Cavia porcellus) (UniProt P47747). The experiment in a line: Histamine H2 receptor antagonism at a concentration of 1 umolar on the isolated guinea pig right atrium. In kind it is functional, tissue-based. Conditions: Cardiac atrium.
Sequence of Histamine H2 receptor (Cavia porcellus) (P47747 whole entry): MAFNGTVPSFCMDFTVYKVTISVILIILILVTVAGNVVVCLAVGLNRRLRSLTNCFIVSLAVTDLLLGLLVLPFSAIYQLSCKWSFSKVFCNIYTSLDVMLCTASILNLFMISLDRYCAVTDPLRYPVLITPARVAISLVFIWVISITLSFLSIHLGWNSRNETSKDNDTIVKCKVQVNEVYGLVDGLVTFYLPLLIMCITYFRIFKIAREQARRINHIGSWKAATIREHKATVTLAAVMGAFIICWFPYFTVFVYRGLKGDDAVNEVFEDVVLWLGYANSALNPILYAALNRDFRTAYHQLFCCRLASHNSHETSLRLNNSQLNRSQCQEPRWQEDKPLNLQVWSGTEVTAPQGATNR
Experiment [3] has the same target. Briefly: Histamine H2 receptor antagonistic activity at a concentration of 0.3 uM on the isolated guinea pig right atrium. It counts as functional, tissue-based. Conditions: Cardiac atrium.
Experiment [4] shares this target. Briefly: Inhibition of the positive chronotropic response (histamine H2 receptor antagonism) of guinea pig right atrium relative to cimetidine. Conditions: Cardiac atrium. In kind it is functional, tissue-based.
The target is the same in experiment [5]. Briefly: Histamine H2 receptor antagonistic activity at a concentration of 0.3 and 1 uM on the isolated guinea pig right atrium. In kind it is functional, tissue-based. Conditions: Cardiac atrium.
The target of the next experiment is Histamine H2 receptor (Cavia porcellus, UniProt P47747). Briefly: Histamine H2 receptor antagonistic activity on the isolated guinea pig right atrium. The conditions noted are these: read-out: pA2 (converted).
Sequence of Histamine H2 receptor (P47747 whole entry): as above

In experiment [1], `N#CN/C(=N\CCOC(=O)c1ccccc1)NCCCOc1cccc(CN2CCCCC2)c1` displayed a Relative potency of 1738%. This compound displayed a pKB in experiment [2] of 7.64.

`N#CN/C(=N\CCNC(=O)c1ccccc1)NCCCOc1cccc(CN2CCCCC2)c1` came in with a Relative potency in experiment [1] of 2630%. The same compound gave a pKB in experiment [3] of 7.82. For the compound `Nc1ccc(C(=O)NCCNC(=O)NCCCOc2cccc(CN3CCCCC3)c2)cc1`, the Relative potency in experiment [1] came out at 676%. Also, the pKB in experiment [2] turned out to be 7.23.

Compound `N#CN/C(=N\CCCCNC(=O)c1ccc(N)cc1)NCCCOc1cccc(CN2CCCCC2)c1` showed a Relative potency in experiment [1] of 81%. In addition, the pKB in experiment [2] was 6.31. Turning to `N#CN/C(=N\CCCNc1ccc(N=[N+]=[N-])cc1[N+](=O)[O-])NCCCCOc1cccc(CN2CCCCC2)c1`, in experiment [2], the pKB was 6.56. In addition, the Relative potency in experiment [4] stood at 145%.

`N#CN/C(=N\CCCNC(=O)c1ccccc1)NCCCOc1cccc(CN2CCCCC2)c1` displayed a Relative potency in experiment [1] of 550%. The same compound gave a pKB in experiment [3] of 7.14.

Compound `N#CN/C(=N\CCCNC(=O)CCc1ccccc1)NCCCOc1cccc(CN2CCCCC2)c1` came in with a Relative potency in experiment [1] of 47%. Besides, the negative logarithm of the KB (pKB) in experiment [2] was 6.07.

With `N#CN/C(=N\CCNC(=O)c1ccccc1[N+](=O)[O-])NCCCCOc1cccc(CN2CCCCC2)c1`, in experiment [1], the Relative potency is reported as 1318%. In experiment [2], this compound gave a pKB of 7.52. The compound `N#CN/C(=N\CCNC(=O)c1ccc(N)cc1)NCCCCOc1cccc(CN2CCCCC2)c1` displayed a Relative potency in experiment [1] of 589%. Also, the pKB in experiment [3] was 7.17. `N#CN/C(=N\CCCNC(=O)c1ccc(N=[N+]=[N-])cc1)NCCCCOc1cccc(CN2CCCCC2)c1`: the pKB in experiment [3] came to 6.63. In experiment [4], this compound gave a Relative potency of 170%. On to `N#CN/C(=N\CCNS(=O)(=O)c1ccccc1)NCCCCOc1cccc(CN2CCCCC2)c1`, for which, in experiment [1], the Relative potency is listed as 759%. In experiment [2], this compound showed a pKB of 7.28. For `N#CN/C(=N\CCCNC(=O)c1ccccc1)NCCCCOc1cccc(CN2CCCCC2)c1`, in that order: 158% and 6.6. Regarding `C/N=C(/NC#N)NCCSCc1csc(NC(=N)N)n1`, the pKB in experiment [2] came to 7.8. In turn, `N#CN/C(=N\CCNS(=O)(=O)c1ccccc1)NCCCOc1cccc(CN2CCCCC2)c1` registered a Relative potency in experiment [1] of 186%. Further, the negative-log KB (pKB) in experiment [5] is 6.67. In the case of `N#CN/C(=N\CCNC(=O)c1cccc(N)c1)NCCCOc1cccc(CN2CCCCC2)c1`, the Relative potency in experiment [1] amounted to 776%. Moreover, the pKB in experiment [5] worked out at 7.29.

Consider `N#CN/C(=N\CCCCCCNC(=O)c1ccccc1)NCCCOc1cccc(CN2CCCCC2)c1`, for which, in experiment [1], the Relative potency is on record as 158%. The same compound came in with a pKB in experiment [2] of 6.6. For the compound `N#CN/C(=N\CCCNC(=O)c1ccc(N=[N+]=[N-])cc1)NCCCOc1cccc(CN2CCCCC2)c1`, in experiment [2], the pKB amounted to 6.36. Further, in experiment [4], the Relative potency amounted to 91%. With `N#CN/C(=N\CCNc1ccc(N=[N+]=[N-])cc1[N+](=O)[O-])NCCCCOc1cccc(CN2CCCCC2)c1`, the pKB in experiment [3] was determined as 7.47. In experiment [4], this compound registered a Relative potency of 1180%. On to `O=C(NCCCOc1cccc(CN2CCCCC2)c1)NCCNC(=O)c1ccccc1`, for which the Relative potency in experiment [1] amounted to 50%. Besides, the pKB in experiment [2] turned out to be 6.1. For `N#CN/C(=N\CCNC(=O)c1ccncc1)NCCCOc1cccc(CN2CCCCC2)c1`, in that order: 309% and 6.89. Turning to `N#CN/C(=N\CCCNc1ccc(N=[N+]=[N-])cc1[N+](=O)[O-])NCCCOc1cccc(CN2CCCCC2)c1`, the pKB in experiment [3] was 6.79. For the same compound, in experiment [4], the Relative potency was 245%. As to `N#CN/C(=N\CCNC(=O)CCc1ccccc1)NCCCOc1cccc(CN2CCCCC2)c1`, in experiment [1], the Relative potency is given as 74%. In experiment [2], this compound gave a pKB of 6.27. For `CC(C)(C)OC(=O)Nc1ccc(CC(=O)NCC/N=C(\NC#N)NCCCCOc2cccc(CN3CCCCC3)c2)cc1`, in that order: 44% and 6.04. Consider `N#CN/C(=N\CCNc1ccc(N=[N+]=[N-])cc1[N+](=O)[O-])NCCCOc1cccc(CN2CCCCC2)c1`, for which the pKB in experiment [2] was found to be 7.39. The same compound registered a Relative potency in experiment [4] of 977%. Regarding `Cc1ccc(S(=O)(=O)NCC/N=C(\NC#N)NCCCOc2cccc(CN3CCCCC3)c2)cc1`, the Relative potency in experiment [1] worked out at 54%. Further, in experiment [2], the pKB stood at 6.13.

Consider `N#CN/C(=N\CCCNc1ccccc1[N+](=O)[O-])NCCCCOc1cccc(CN2CCCCC2)c1`, for which, in experiment [2], the pKB stood at 7.85. The same compound showed a Relative potency in experiment [4] of 2820%.

For the compound `N#CN/C(=N\CCNC(=O)c1cc(I)c(N)c(I)c1)NCCCCOc1cccc(CN2CCCCC2)c1`, the negative-log KB (pKB) in experiment [5] amounted to 7.86. In experiment [4], this compound registered a Relative potency of 2880%. Consider `N#CN/C(=N\CCNC(=O)c1ccc(N)c(I)c1)NCCCCOc1cccc(CN2CCCCC2)c1`, for which the pKB in experiment [3] is 7.35. The compound further displayed a Relative potency in experiment [4] of 891%. For `N#CN/C(=N\CCNC(=O)Cc1ccccc1)NCCCOc1cccc(CN2CCCCC2)c1`, in experiment [1], the Relative potency was 339%. This compound also returned a pKB in experiment [2] of 6.93. In the same order, the values of `N#CN/C(=N\CCNC(=O)c1ccccc1)NCCCCOc1cccc(CN2CCCCC2)c1` are 1862% and 7.67. In experiment [1], `N#CN/C(=N\CCCCCNC(=O)c1ccccc1)NCCCOc1cccc(CN2CCCCC2)c1` returned a Relative potency of 151%. This compound came in with a pKB in experiment [2] of 6.58. In the same order, the values of `Nc1ccc(C(=O)NCCCOc2cccc(CN3CCCCC3)c2)cc1` are 263% and 6.82. Consider `N#CN=C(NCCCOc1cccc(CN2CCCCC2)c1)NCCNC(=O)c1ccc(N=[N+]=[N-])c(I)c1`, for which the Kb at Histamine H2 receptor is 155 nM. The compound `N#CN/C(=N\CCCCNC(=O)c1ccccc1)NCCCOc1cccc(CN2CCCCC2)c1` yielded a Relative potency in experiment [1] of 257%. Moreover, the pKB in experiment [2] came to 6.81. In experiment [1], `N#CN/C(=N\CCCOc1cccc(CN2CCCCC2)c1)NCC(O)CNC(=O)c1ccccc1` (centres undefined) returned a Relative potency of 813%. The negative-log KB (pKB) in experiment [5] was 7.31. As for `CN/C(=N\CCSCc1nc[nH]c1C)NC#N`, in experiment [2], the pKB was 6.4. The compound `N#CN/C(=N\CCNC(=O)CCCc1ccccc1)NCCCOc1cccc(CN2CCCCC2)c1` displayed a Relative potency in experiment [1] of 112%. In addition, in experiment [2], the pKB worked out at 6.45.

As to `CC(C)(C)OC(=O)Nc1ccc(C(=O)NCC/N=C(\NC#N)NCCCOc2cccc(CN3CCCCC3)c2)cc1`, the Relative potency in experiment [1] was found to be 295%. For the same compound, in experiment [5], the pKB came out at 6.87. Turning to `N#CN/C(=N\CCNC(=O)c1ccc(N=[N+]=[N-])cc1)NCCCCOc1cccc(CN2CCCCC2)c1`, in experiment [3], the pKB came out at 7.54. In experiment [4], this compound registered a Relative potency of 1380%. With `N#CN/C(=N\CCNC(=O)c1ccc(N=[N+]=[N-])cc1)NCCCOc1cccc(CN2CCCCC2)c1`, the pKB in experiment [2] amounted to 7.9. In experiment [4], the Relative potency was found to be 3160%. `Cc1ccc(S(=O)(=O)NCC/N=C(\NC#N)NCCCCOc2cccc(CN3CCCCC3)c2)cc1`: the Relative potency in experiment [1] turned out to be 776%. Besides, the negative logarithm of the KB (pKB) in experiment [2] was found to be 7.29.

As a reminder, the pKB is the KB on a negative log10 scale, so that one unit is a factor of ten. Read a high pKB as a low KB.

The values are drawn from ChEMBL document CHEMBL1126247, “Iodoaminopotentidine and related compounds: a new class of ligands with high affinity and selectivity for the histamine H2 receptor” (J Med Chem, 1992).
